The test concerns Iba1. Put plainly: IHC of Iba1 (microglia activation) in 5xFAD brain sections. The note with it: for Iba1 normalized volume (individual mice): CA1, 5xFAD 1 month; for Figure 9D, IHC signal: individual animals; for Iba1 vs vehicle: cortex, 5xFAD 1 month. Type of test: in vivo, mouse. The source says:
Following the behavioral experiments, we assessed brain pathologies associated with AD present in the 5xFAD mice ([37]). Therefore, 5 days following the last behavioral experiment, and 1 month after the start of YB-537 consumption, mice were sacrificed, and coronal brain sections were used for IHC. Since the CA1 region of the hippocampus is affected during AD pathogenesis ([37]), and this brain region is involved in the behavioral paradigms used here, we acquired images of CA1. This was done with an Olympus IX83 confocal microscope using the same settings, antibodies, and exposures in all mice. Images were analyzed using Imaris (Bitplane; see methods). For each mouse, 3 coronal sections were used per antibody. In each section, the same region of CA1 was acquired, using the same image frame size and resolution, at all possible depths of the section — using a Z-stack of the whole section — to allow measurement of the fluorescent antibody marker volume, which was normalized to the brain volume from which it was taken. First, we measured oxidative stress, as indicated by 4-HNE ([38]) (Abcam, ab48506).
Perfused and fixed brain slices were blocked with 10% normal donkey serum (DNS) and 0.2% triton (Sigma-Aldrich) in PBS. Antibodies, including 4-HNE (AbCam, ab48506), Iba1 (AbCam, ab5076), AT-8 (Thermo, MN1020), Amyloid β (AbCam, ab201060), diluted in PBS with 10% DNS, were incubated at 4°C overnight. Secondary antibodies including donkey-anti-goat Alexa Fluor 568 (AbCam, ab175704), donkey-anti-mouse Cy 5 (Jackson Immuno Research, 715-175-151), and donkey-anti-rabbit DyLight 488 (AbCam, ab98488) all diluted 1:500 in PBS with 1% BSA, were applied to the slices at RT for 2 hours the next day. Slices were mounted onto glass slides using DAPI containing Vectashield (H-1200). Images were taken using a confocal microscope (Olympus IX83). Three slices were used per mouse per antibody. Tiling images of the dorsal CA1 and cortex (Bregma: –1.58mm to –2.30mm) were taken using ×20 objective, acquiring a Z-stack of the whole section. Analysis of the images was done blind by an experimenter unaware of the experimental conditions or details, using Imaris (Bitplane) software. A surface reconstruction module was used to extract the data as volumes of the used markers (4-HNE, phospho-tau, amyloid β, GFAP, and Iba1). Marker volume and intensity were normalized to the corresponding brain volume. The normalized value was averaged for each triplicate and presented here. […]
Brains were then briefly removed and placed in chilled, 4% PFA for 48 h, f oll owe d by immersion in 30% sucrose in 0.1 M PBS for a furt her 48 h. Bra i ns wer e t h e n stored at -80°C, until t he y were sliced into 40µm coronal sections usinga Lei ca CM 1950cryostat. Sli ces were then washed x3 in PBS and bl oc ke d for 1 h at RT using 10% normal donkey serum (DNS) and 0.2% triton (Sigma-Aldrich) in PBS. Antibodies, including 4- HNE (1:500, AbCam, ab48506), Iba1 (1:2,000, AbCam, ab5076), GFAP (Abcam, ab53554), phospho- tau (1:1,000, Thermo, MN1020) and amyloid β (1:1,000, AbCam, ab201060) diluted in PBS with 10% DNS were incubated at 4°C overnight. The next day, the slices were washed x3 times in PBS, and secondary antibodies including donkey anti goat A l e x a Fluor 568 (AbCam, ab175704), donkey anti-mouse Cy 5 (Jackson Immuno Research, 715- 175- 151) and donkey anti-rabbit DyLight 488 (AbCam, ab98488) all diluted 1:500 in PBS with 1% BSA, were applied to the slices at RT for 2 h. Following the incubation, the slices were washed x3 times in PBS, mounted onto gl ass slides, were uniformly covered in DAPI containing Vectashield (H-1200) and coverslips were a dde d. […]

Several values for one entry are separate records, joined by “and”; a condition that tells them apart may be missing. Equal values may be shown once.

As to `Cc1ccc(-c2cn3cccc(C)c3n2)cc1S(=O)(=O)N1CCNCC1` [YB-537], the “Iba1 normalized volume (individual mice)” value was 0.0305 and 0.0266 and 0.0346 and 0.0314 and 0.0200 and 0.0191 and 0.0158 (Females); 0.0473 and 0.0384 and 0.0542 and 0.0369 and 0.0352 and 0.0318 and 0.0209 and 0.0414 and 0.0362 (Males); 0.0473 and 0.0384 and 0.0542 and 0.0369 and 0.0352 and 0.0314 and 0.0200 and 0.0191 and 0.0158 and 0.0305 and 0.0266 and 0.0346 and 0.0318 and 0.0209 and 0.0414 and 0.0362 (Males + Females). Further, the “Figure 9D, IHC signal” value by setting is: (Cortex) 0.0209 and 0.0186 and 0.0218 and 0.0206 and 0.0305 and 0.0198 and 0.0227; (Hippocampus) 0.0213 and 0.0206 and 0.0202 and 0.0175 and 0.0174 and 0.0220 and 0.0296 and 0.0197. The Iba1 vs vehicle result (females) is listed as “significantly reduced”, the Iba1 vs vehicle result (males) was “insignificantly reduced” and the Iba1 vs vehicle result (total population) is given as “significantly reduced”.

The values are drawn from publication PMC10541198, “Specific quinone reductase 2 inhibitors reduce metabolic burden and reverse Alzheimer’s disease phenotype in mice” (The Journal of Clinical Investigation, 2023).
